# US20260068882A1, “ARTHROPOD CONTROLLING COMPOSITION” (Firmenich SA, priority 2019, published 2026)
# What was measured:
# Ixodes ricinus = assay: In vitro Warm Plate Assay for ticks; assay type: in vivo
# How it was run: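 Repellency against last-stage Ixodes ricinus nymphs in an in vitro warm plate assay, compounds diluted in ethanol at 0.4 and 10 mg/mL, 0.0016% to 1%, or 20% (w/w). Ticks walking down or falling from the treated plate scored as affected, walking up as unaffected; groups of 12 ticks, n=2-5.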
# Aedes aegypti = assay: In vitro Warm Body assay, mosquitoes landing on treated warm body; assay type: in vivo; conditions: for % of mosquitoes' repellency: normalised to landing with 100% ethanol
# How it was run: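 Adapted Warm Body assay with host-seeking, non-blood-fed, sugar-fed A. aegypti Rockefeller females aged 5–10 days (10–12 days in one set); cages held 30 (or 25) females at 150 lux. Landings were counted automatically. Doses in ethanol were 0.0016%, 0.04% and 1% in triplicate, or a single replicate across 0.0016–1%.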
# [1] = 20% (w/w) in ethanol, 0.25 h post-application
# [2] = 20% (w/w) in ethanol, 0.5 h post-application
# [3] = 20% (w/w) in ethanol, 1 h post-application
# [4] = 20% (w/w) in ethanol, 2 h post-application
# [5] = 20% (w/w) in ethanol, 4 h post-application
# [6] = 20% (w/w) in ethanol, 6 h post-application
# [7] = 0.0016% in ethanol (Table 7, one replicate)
# [8] = 0.008% in ethanol (Table 7, one replicate)
# [9] = 0.0119% in ethanol (Table 7, one replicate)
# [10] = 0.04% in ethanol (Table 7, one replicate)
# [11] = 0.0598% in ethanol (Table 7, one replicate)
# [12] = 0.2% in ethanol (Table 7, one replicate)
# [13] = 1% in ethanol (Table 7, one replicate)
smiles,measurement,setting,value
"CCN(CC)C(=O)c1cccc(C)c1 [DEET, N,N-diethyl-3-methylbenzamide, reference compound]",MEAN % affected (ticks),Ixodes ricinus; 0.4 mg/mL in ethanol (Table 5),50%
same,MEAN % affected (ticks),Ixodes ricinus; 10 mg/mL in ethanol (Table 5),96%
same,% of mosquitoes' repellency,Aedes aegypti; 0.00032% concentration,17%
same,% of mosquitoes' repellency,Aedes aegypti; 0.00071% concentration,10%
same,% of mosquitoes' repellency,Aedes aegypti; 0.0016% concentration,5%
same,mean ± SD numbers of mosquitoes landed on the Warm Body,Aedes aegypti; 0.0016% dilution (Table 4),53.3 ± 12.5
same,% of mosquitoes' repellency,Aedes aegypti; 0.0036% concentration,19%
same,% of mosquitoes' repellency,Aedes aegypti; 0.0053% concentration,46%
same,% of mosquitoes' repellency,Aedes aegypti; 0.0080% concentration,61%
same,% of mosquitoes' repellency,Aedes aegypti; 0.018% concentration,79%
same,% of mosquitoes' repellency,Aedes aegypti; 0.040% concentration,89%
same,mean ± SD numbers of mosquitoes landed on the Warm Body,Aedes aegypti; 0.04% dilution (Table 4),5.7 ± 1.0
same,% of mosquitoes' repellency,Aedes aegypti; 0.089% concentration,97%
same,% of mosquitoes' repellency,Aedes aegypti; 0.20% concentration,98%
same,% of mosquitoes' repellency,Aedes aegypti; 0.45% concentration,95%
same,% of mosquitoes' repellency,Aedes aegypti; 1% concentration,97%
same,mean ± SD numbers of mosquitoes landed on the Warm Body,Aedes aegypti; 1% dilution (Table 4),0.7 ± 0.3
same,pest or weed control at 0.04 %,"Aedes aegypti; Aedes aegypti, 0.04% in ethanol (FIG. 8), read-out: decrease of landings",92%
"CCCCN(CCC(=O)OCC)C(C)=O [IR3535, 3-[N-n-butyl-N-acetyl]aminopropionic acid ethylester, reference compound]",percentage of ticks affected on the Warm Plate,Ixodes ricinus; 0.0016% in ethanol (Table 12),0%
same,percentage of ticks affected on the Warm Plate,Ixodes ricinus; 0.0053% in ethanol (Table 12),0%
same,percentage of ticks affected on the Warm Plate,Ixodes ricinus; 0.008% in ethanol (Table 12),8%
same,percentage of ticks affected on the Warm Plate,Ixodes ricinus; 0.0119% in ethanol (Table 12),0%
same,percentage of ticks affected on the Warm Plate,Ixodes ricinus; 0.0178% in ethanol (Table 12),0%
same,percentage of ticks affected on the Warm Plate,Ixodes ricinus; 0.0267% in ethanol (Table 12),0%
same,percentage of ticks affected on the Warm Plate,Ixodes ricinus; 0.04% in ethanol (Table 12),33%
same,percentage of ticks affected on the Warm Plate,Ixodes ricinus; 0.0598% in ethanol (Table 12),12%
same,percentage of ticks affected on the Warm Plate,Ixodes ricinus; 0.089% in ethanol (Table 12),46%
same,percentage of ticks affected on the Warm Plate,Ixodes ricinus; 0.2% in ethanol (Table 12),57%
same,percentage of ticks affected on the Warm Plate,Ixodes ricinus; 0.447% in ethanol (Table 12),53%
same,percentage of ticks affected on the Warm Plate,Ixodes ricinus; 1% in ethanol (Table 12),56%
same,percentage of ticks affected overtime,Ixodes ricinus; [1],83%
same,percentage of ticks affected overtime,Ixodes ricinus; [2],40%
same,percentage of ticks affected overtime,Ixodes ricinus; [3],83%
same,percentage of ticks affected overtime,Ixodes ricinus; [4],58%
same,percentage of ticks affected overtime,Ixodes ricinus; [5],58%
same,percentage of ticks affected overtime,Ixodes ricinus; [6],0%
same,ticks affected,Ixodes ricinus; dose of 0.89%,46%
same,% of mosquitoes' repellency,Aedes aegypti; 0.00032% concentration,8%
same,% of mosquitoes' repellency,Aedes aegypti; 0.0016% concentration,0%
same,mean ± SD numbers of mosquitoes landed on the Warm Body,Aedes aegypti; 0.0016% dilution (Table 4),70.0 ± 14.3
same,number of mosquitoes landed on the Warm Body,Aedes aegypti; [7],70
same,% of mosquitoes' repellency,Aedes aegypti; 0.0080% concentration,0%
same,number of mosquitoes landed on the Warm Body,Aedes aegypti; [8],63
same,number of mosquitoes landed on the Warm Body,Aedes aegypti; [9],22
same,% of mosquitoes' repellency,Aedes aegypti; 0.040% concentration,69%
same,mean ± SD numbers of mosquitoes landed on the Warm Body,Aedes aegypti; 0.04% dilution (Table 4),20.7 ± 2.1
same,number of mosquitoes landed on the Warm Body,Aedes aegypti; [10],21
same,number of mosquitoes landed on the Warm Body,Aedes aegypti; [11],6
same,% of mosquitoes' repellency,Aedes aegypti; 0.20% concentration,78%
same,number of mosquitoes landed on the Warm Body,Aedes aegypti; [12],9
same,number of mosquitoes landed on the Warm Body,"Aedes aegypti; 0.447% in ethanol (Table 7, one replicate)",0
same,% of mosquitoes' repellency,Aedes aegypti; 1% concentration,89%
same,mean ± SD numbers of mosquitoes landed on the Warm Body,Aedes aegypti; 1% dilution (Table 4),7.7 ± 1.6
same,number of mosquitoes landed on the Warm Body,Aedes aegypti; [13],8
same,repulsion (in words),Aedes aegypti; concentrations lower than 0.04%,only low repulsion
"CC1CCC(C(C)(C)O)C(O)C1 (centres unmarked) [PMD, 2-(2-hydroxypropan-2-yl)-5-methylcyclohexan-1-ol, reference compound]",percentage of ticks affected overtime,Ixodes ricinus; [1],42%
same,percentage of ticks affected overtime,Ixodes ricinus; [2],42%
same,percentage of ticks affected overtime,Ixodes ricinus; [3],83%
same,percentage of ticks affected overtime,Ixodes ricinus; [4],50%
same,percentage of ticks affected overtime,Ixodes ricinus; [5],8%
same,percentage of ticks affected overtime,Ixodes ricinus; [6],17%
same,ticks' repellency overtime (in words),"Ixodes ricinus; 20% (w/w) in ethanol, Table 14",not efficient during these first time points
same,pest or weed control at 0.0016 %,"Ixodes ricinus; Ixodes ricinus, 0.0016% in ethanol (Table 12), read-out: percentage of ticks affected on the Warm Plate",0%
same,pest or weed control at 0.0053 %,"Ixodes ricinus; Ixodes ricinus, 0.0053% in ethanol (Table 12), read-out: percentage of ticks affected on the Warm Plate",12%
same,pest or weed control at 0.008 %,"Ixodes ricinus; Ixodes ricinus, 0.008% in ethanol (Table 12), read-out: percentage of ticks affected on the Warm Plate",4%
same,pest or weed control at 0.0119 %,"Ixodes ricinus; Ixodes ricinus, 0.0119% in ethanol (Table 12), read-out: percentage of ticks affected on the Warm Plate",4%
same,pest or weed control at 0.0178 %,"Ixodes ricinus; Ixodes ricinus, 0.0178% in ethanol (Table 12), read-out: percentage of ticks affected on the Warm Plate",4%
same,pest or weed control at 0.0267 %,"Ixodes ricinus; Ixodes ricinus, 0.0267% in ethanol (Table 12), read-out: percentage of ticks affected on the Warm Plate",0%
same,pest or weed control at 0.04 %,"Ixodes ricinus; Ixodes ricinus, 0.04% in ethanol (Table 12), read-out: percentage of ticks affected on the Warm Plate",12%
same,pest or weed control at 0.0598 %,"Ixodes ricinus; Ixodes ricinus, 0.0598% in ethanol (Table 12), read-out: percentage of ticks affected on the Warm Plate",19%
same,pest or weed control at 0.089 %,"Ixodes ricinus; Ixodes ricinus, 0.089% in ethanol (Table 12), read-out: percentage of ticks affected on the Warm Plate",42%
same,pest or weed control at 0.2 %,"Ixodes ricinus; Ixodes ricinus, 0.2% in ethanol (Table 12), read-out: percentage of ticks affected on the Warm Plate",84%
same,pest or weed control at 0.447 %,"Ixodes ricinus; Ixodes ricinus, 0.447% in ethanol (Table 12), read-out: percentage of ticks affected on the Warm Plate",96%
same,pest or weed control at 1 %,"Ixodes ricinus; Ixodes ricinus, 1% in ethanol (Table 12), read-out: percentage of ticks affected on the Warm Plate",96%
same,ticks affected,Ixodes ricinus; dose of 0.598%,19%
same,reduction of landing,Aedes aegypti; 0.0016% (Table 7),11%
same,number of mosquitoes landed on the Warm Body,Aedes aegypti; [7],58
same,number of mosquitoes landed on the Warm Body,Aedes aegypti; [8],40
same,number of mosquitoes landed on the Warm Body,Aedes aegypti; [9],36
same,number of mosquitoes landed on the Warm Body,Aedes aegypti; [10],8
same,number of mosquitoes landed on the Warm Body,Aedes aegypti; [11],1
same,number of mosquitoes landed on the Warm Body,Aedes aegypti; [12],1
same,number of mosquitoes landed on the Warm Body,Aedes aegypti; [13],0
